Measurements from patent US10544143B2, “4-azaindole compounds” (BRISTOL-MYERS SQUIBB COMPANY, priority 2017, dated 2020).

How the values were obtained:
[1] = target: human TLR7 (Homo sapiens (Human), UniProt Q9NYK1); assay: TLR7 inhibition reporter assay (HEK-Blue SEAP); type: cell-based; conditions: HEK-Blue cells overexpressing human TLR7, SEAP reporter, gardiquimod 7.5 μM
[2] = target: human TLR8 (Homo sapiens (Human), UniProt Q9NR97); assay: TLR8 inhibition reporter assay (HEK-Blue SEAP); conditions: read-out: TLR8 IC50; HEK-Blue cells overexpressing human TLR8, SEAP reporter, R848 15.9 μM;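 also: SEAP driven by IFN-β minimal promoter carrying NF-κB and AP-1 sites, compounds dosed 0.05 nM to 50 µM for 22 h, inhibition scaled between agonist-plus-DMSO and reference-inhibitor wells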
Sequence of human TLR8 (Q9NR97 27-1041): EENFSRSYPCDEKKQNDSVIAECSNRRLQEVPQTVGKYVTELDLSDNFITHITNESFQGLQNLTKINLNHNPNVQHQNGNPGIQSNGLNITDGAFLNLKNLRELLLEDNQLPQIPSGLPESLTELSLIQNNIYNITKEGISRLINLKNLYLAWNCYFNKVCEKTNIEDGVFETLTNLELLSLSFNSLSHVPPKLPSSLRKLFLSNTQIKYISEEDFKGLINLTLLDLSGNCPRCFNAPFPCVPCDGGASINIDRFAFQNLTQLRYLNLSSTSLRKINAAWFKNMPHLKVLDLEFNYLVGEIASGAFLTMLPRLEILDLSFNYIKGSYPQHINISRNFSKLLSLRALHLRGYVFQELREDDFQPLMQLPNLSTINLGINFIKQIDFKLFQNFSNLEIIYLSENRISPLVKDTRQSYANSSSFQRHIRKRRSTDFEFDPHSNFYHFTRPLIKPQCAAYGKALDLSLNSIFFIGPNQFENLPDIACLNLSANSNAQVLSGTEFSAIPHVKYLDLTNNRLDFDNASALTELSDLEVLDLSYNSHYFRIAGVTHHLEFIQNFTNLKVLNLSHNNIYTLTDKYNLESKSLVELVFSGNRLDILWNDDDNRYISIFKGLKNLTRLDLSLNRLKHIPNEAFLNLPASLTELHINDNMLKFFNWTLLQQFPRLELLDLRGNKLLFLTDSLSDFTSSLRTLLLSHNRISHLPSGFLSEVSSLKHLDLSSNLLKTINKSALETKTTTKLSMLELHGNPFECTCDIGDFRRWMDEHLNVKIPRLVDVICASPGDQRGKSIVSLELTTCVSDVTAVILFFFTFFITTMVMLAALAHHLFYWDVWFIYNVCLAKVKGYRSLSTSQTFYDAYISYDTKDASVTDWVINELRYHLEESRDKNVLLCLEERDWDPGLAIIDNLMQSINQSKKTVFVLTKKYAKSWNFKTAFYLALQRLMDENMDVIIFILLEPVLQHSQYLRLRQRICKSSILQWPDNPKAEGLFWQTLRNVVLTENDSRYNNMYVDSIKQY

[3] = target: human TLR9 (Homo sapiens (Human), UniProt Q9NR96); assay: TLR9 inhibition reporter assay (HEK-Blue SEAP); conditions: read-out: TLR9 IC50; HEK-Blue cells overexpressing human TLR9, SEAP reporter, ODN2006 5 nM;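 also: SEAP driven by an IFN-β minimal promoter with NF-κB and AP-1 sites, read after 22 h, compounds dosed 0.05 nM–50 µM, inhibition scaled between agonist plus DMSO and reference-inhibitor wells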
Sequence of human TLR9 (Q9NR96 26-1032): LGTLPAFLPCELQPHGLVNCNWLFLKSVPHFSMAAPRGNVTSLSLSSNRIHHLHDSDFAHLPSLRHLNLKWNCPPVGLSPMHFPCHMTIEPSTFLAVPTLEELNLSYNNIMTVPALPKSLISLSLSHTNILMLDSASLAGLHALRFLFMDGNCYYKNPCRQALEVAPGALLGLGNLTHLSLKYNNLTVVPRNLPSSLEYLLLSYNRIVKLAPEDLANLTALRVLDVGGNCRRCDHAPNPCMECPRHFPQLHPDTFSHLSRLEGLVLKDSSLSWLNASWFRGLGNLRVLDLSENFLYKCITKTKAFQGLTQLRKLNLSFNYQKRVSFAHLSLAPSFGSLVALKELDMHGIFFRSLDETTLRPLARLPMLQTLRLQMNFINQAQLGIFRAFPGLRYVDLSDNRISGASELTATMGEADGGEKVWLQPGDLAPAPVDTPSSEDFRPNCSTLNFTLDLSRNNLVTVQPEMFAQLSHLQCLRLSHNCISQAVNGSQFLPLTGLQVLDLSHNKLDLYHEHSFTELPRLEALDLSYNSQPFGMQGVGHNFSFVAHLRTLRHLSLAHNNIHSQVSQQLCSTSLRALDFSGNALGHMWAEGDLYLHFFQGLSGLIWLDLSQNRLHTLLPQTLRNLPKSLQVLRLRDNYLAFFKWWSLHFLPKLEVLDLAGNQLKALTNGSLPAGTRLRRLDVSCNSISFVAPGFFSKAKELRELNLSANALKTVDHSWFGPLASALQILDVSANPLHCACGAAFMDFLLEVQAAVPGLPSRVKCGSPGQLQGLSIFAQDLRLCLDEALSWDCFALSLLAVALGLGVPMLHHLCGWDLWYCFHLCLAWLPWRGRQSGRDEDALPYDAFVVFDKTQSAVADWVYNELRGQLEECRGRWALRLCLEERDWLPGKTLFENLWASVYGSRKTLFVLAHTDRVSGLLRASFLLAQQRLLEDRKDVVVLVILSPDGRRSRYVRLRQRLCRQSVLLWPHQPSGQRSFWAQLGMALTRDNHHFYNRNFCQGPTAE

Sequence of human TLR7 (Q9NYK1 27-1049): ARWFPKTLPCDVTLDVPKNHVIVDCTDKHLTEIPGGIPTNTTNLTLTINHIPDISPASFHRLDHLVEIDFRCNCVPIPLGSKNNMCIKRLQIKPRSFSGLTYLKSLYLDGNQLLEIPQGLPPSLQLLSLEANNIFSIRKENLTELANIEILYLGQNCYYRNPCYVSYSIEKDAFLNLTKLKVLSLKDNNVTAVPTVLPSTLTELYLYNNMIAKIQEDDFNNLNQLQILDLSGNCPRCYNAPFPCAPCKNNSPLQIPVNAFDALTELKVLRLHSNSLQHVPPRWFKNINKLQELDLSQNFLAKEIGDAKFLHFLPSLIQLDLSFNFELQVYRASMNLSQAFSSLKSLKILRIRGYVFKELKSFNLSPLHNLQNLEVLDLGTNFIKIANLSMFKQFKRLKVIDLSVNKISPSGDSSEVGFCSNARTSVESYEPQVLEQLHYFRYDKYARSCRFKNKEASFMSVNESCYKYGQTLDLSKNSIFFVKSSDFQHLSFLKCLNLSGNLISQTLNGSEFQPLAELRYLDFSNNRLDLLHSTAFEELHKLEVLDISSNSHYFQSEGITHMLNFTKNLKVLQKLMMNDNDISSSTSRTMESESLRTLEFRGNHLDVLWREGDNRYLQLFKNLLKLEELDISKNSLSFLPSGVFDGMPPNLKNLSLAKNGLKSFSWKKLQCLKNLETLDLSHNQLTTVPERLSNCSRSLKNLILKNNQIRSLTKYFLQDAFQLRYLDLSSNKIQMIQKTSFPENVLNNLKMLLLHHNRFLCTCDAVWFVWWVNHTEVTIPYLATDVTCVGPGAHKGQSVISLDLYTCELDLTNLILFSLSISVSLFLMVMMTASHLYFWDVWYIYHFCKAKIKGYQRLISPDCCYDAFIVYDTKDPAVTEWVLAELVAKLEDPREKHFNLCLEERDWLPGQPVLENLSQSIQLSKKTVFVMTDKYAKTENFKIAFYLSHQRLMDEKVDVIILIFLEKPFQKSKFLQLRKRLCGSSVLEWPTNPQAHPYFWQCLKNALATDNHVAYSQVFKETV

Row | Compound | IC50 [1] | IC50 [2] | IC50 [3]
1 | CCCN(CCC)C1CCC(Oc2ccc3[nH]c(-c4cc(OC)c5ncnn5c4)c(C(C)C)c3n2)CC1 (stereo not drawn) [Example 611, 4-((3-isopropyl-2-(8-methoxy-[1,2,4]triazolo[1,5-a]pyridin-6-yl)-1H-pyrrolo[3,2-b]pyridin-5-yl)oxy)-N,N-dipropylcyclohexan-1-amine] | 8.4 nM | 17 nM | 1930 nM
2 | COc1cc(-c2[nH]c3ccc(OC4CN(C(C)C)C4)nc3c2C(C)C)cn2ncnc12 [Example 612, 6-(3-isopropyl-5-((1-isopropylazetidin-3-yl)oxy)-1H-pyrrolo[3,2-b]pyridin-2-yl)-8-methoxy-[1,2,4]triazolo[1,5-a]pyridine] | 13 nM | 56 nM | 3930 nM
3 | COc1cc(-c2[nH]c3ccc(OC4CCC(N(C)C)CC4)nc3c2C(C)C)cn2ncnc12 (stereo not drawn) [Example 614, 4-((3-isopropyl-2-(8-methoxy-[1,2,4]triazolo[1,5-a]pyridin-6-yl)-1H-pyrrolo[3,2-b]pyridin-5-yl)oxy)-N,N-dimethylcyclohexan-1-amine] | 1.9 nM | 13 nM | 1010 nM
4 | COc1cc(-c2[nH]c3ccc(C4CC(NCC5(C)COC5)C4)nc3c2C(C)C)cn2ncnc12 (stereo not drawn) [Example 616] | 3.6 nM | 1.5 nM | 1280 nM
5 | Cc1c(-c2[nH]c3ccc(C4CC(N)C4)nc3c2C(C)C)cn2ncnc2c1C (stereo not drawn) [Example 617] | 2220 nM | 1320 nM | 20500 nM
6 | Cc1c(-c2[nH]c3ccc(C4CC(N(C)CCS(C)(=O)=O)C4)nc3c2C(C)C)cn2ncnc2c1C (stereo not drawn) [Example 621] | 7 nM | 7.5 nM | 14700 nM
7 | Cc1c(-c2[nH]c3ccc(C4CC(N(C)CC(=O)N(C)C)C4)nc3c2C(C)C)cn2ncnc2c1C (stereo not drawn) [Example 622] | 30 nM | 14 nM | 5070 nM
8 | Cc1c(-c2[nH]c3ccc(C4CC(N(C)CC5(C)COC5)C4)nc3c2C(C)C)cn2ncnc2c1C (stereo not drawn) [Example 626] | 29 nM | 8 nM | 13500 nM
9 | COc1cc(-c2[nH]c3ccc(C4CC(N(C)CC(=O)N(C)C)C4)nc3c2C(C)C)cn2ncnc12 (stereo not drawn) [Example 627] | 7.9 nM | 18 nM | 4500 nM
10 | COc1cc(-c2[nH]c3ccc(C4CC(NC5CCOCC5)C4)nc3c2C(C)C)cn2ncnc12 (stereo not drawn) [Example 632] | 3.1 nM | 2.2 nM | 439 nM
11 | Cc1c(-c2[nH]c3ccc(C4CC(N(CC5(C)COC5)CC5(C)COC5)C4)nc3c2C(C)C)cn2ncnc2c1C (stereo not drawn) [Example 633] | 40 nM | 33 nM | 25500 nM
12 | Cc1c(-c2[nH]c3ccc(C4CC(NC5CCOCC5)C4)nc3c2C(C)C)cn2ncnc2c1C (stereo not drawn) [Example 635] | 5.7 nM | 1.1 nM | 1780 nM
13 | Cc1c(-c2[nH]c3ccc(C4CC(N(C)CCS(C)(=O)=O)C4)nc3c2C(C)C)cn2ncnc2c1C (stereo not drawn) [Example 636] | 46 nM | 28 nM | 21600 nM
14 | Cc1c(-c2[nH]c3ccc(C4CC(N(C)CC(C)(C)O)C4)nc3c2C(C)C)cn2ncnc2c1C (stereo not drawn) [Example 641] | 9.2 nM | 3.5 nM | 3340 nM
15 | COc1cc(-c2[nH]c3ccc(C4CC(N(C)CCS(C)(=O)=O)C4)nc3c2C(C)C)cn2ncnc12 (stereo not drawn) [Example 642] | 14 nM | 26 nM | 18100 nM
16 | COc1cc(-c2[nH]c3ccc(C4CN(CC(N)=O)C4)nc3c2C(C)C)cn2ncnc12 [Example 645] | 21 nM | 303 nM | 4090 nM
17 | Cc1c(-c2[nH]c3ccc(C4CNC4)nc3c2C(C)C)cn2ncnc2c1C [Example 649, 6-(5-(azetidin-3-yl)-3-isopropyl-1H-pyrrolo[3,2-b]pyridin-2-yl)-7,8-dimethyl-[1,2,4]triazolo[1,5-a]pyridine] | 6.2 nM | 10 nM | 3280 nM
18 | Cc1c(-c2[nH]c3ccc(C4CN(C(=O)CN(C)C)C4)nc3c2C(C)C)cn2ncnc2c1C [Example 650] | 6.7 nM | 18 nM | 3120 nM
19 | Cc1c(-c2[nH]c3ccc(C4CN(CC(C)(C)O)C4)nc3c2C(C)C)cn2ncnc2c1C [Example 654] | 6.4 nM | 9.6 nM | 4920 nM

Further compounds by falling IC50 [1], results first:

Row | IC50 [1] | IC50 [2] | IC50 [3] | Compound
20 | 5.5 nM | 13 nM | 13200 nM | Cc1c(-c2[nH]c3ccc(C4CN(CCS(C)(=O)=O)C4)nc3c2C(C)C)cn2ncnc2c1C [Example 653, 6-(3-isopropyl-5-(1-(2-(methylsulfonyl)ethyl)azetidin-3-yl)-1H-pyrrolo[3,2-b]pyridin-2-yl)-7,8-dimethyl-[1,2,4]triazolo[1,5-a]pyridine]
21 | 5.4 nM | 5.3 nM | 3170 nM | COc1cc(-c2[nH]c3ccc(C4CC(N(C)CC5(C)COC5)C4)nc3c2C(C)C)cn2ncnc12 (stereo not drawn) [Example 643]
22 | 4.9 nM | 4.9 nM | 13500 nM | COc1cc(-c2[nH]c3ccc(C4CC(N(C)CCS(C)(=O)=O)C4)nc3c2C(C)C)cn2ncnc12 (stereo not drawn) [Example 640]
23 | 4.8 nM | 4.6 nM | 3700 nM | Cc1c(-c2[nH]c3ccc(C4CC(N(C)C)C4)nc3c2C(C)C)cn2ncnc2c1C (stereo not drawn) [Example 618]
24 | 4 nM | 1.9 nM | 3070 nM | CNC(=O)CNC1CC(c2ccc3[nH]c(-c4cn5ncnc5c(C)c4C)c(C(C)C)c3n2)C1 (stereo not drawn) [Example 631]
25 | 3.8 nM | 0.53 nM | 1360 nM | Cc1c(-c2[nH]c3ccc(C4CC(NCC5(C)COC5)C4)nc3c2C(C)C)cn2ncnc2c1C (stereo not drawn) [Example 637]
26 | 3 nM | 2 nM | 2570 nM | Cc1c(-c2[nH]c3ccc(C4CC(NCCS(C)(=O)=O)C4)nc3c2C(C)C)cn2ncnc2c1C (stereo not drawn) [Example 624]
27 | 3 nM | 22 nM | 1600 nM | COc1cc(-c2[nH]c3ccc(C4CN(C(=O)CN(C)C)C4)nc3c2C(C)C)cn2ncnc12 [Example 652]
28 | 2.9 nM | 7.3 nM | 1270 nM | COc1cc(-c2[nH]c3ccc(C4CC(NC(=O)CN(C)C)C4)nc3c2C(C)C)cn2ncnc12 (stereo not drawn) [Example 638]
29 | 2.7 nM | 4.5 nM | 2690 nM | Cc1c(-c2[nH]c3ccc(C4CC(NC(=O)CN(C)C)C4)nc3c2C(C)C)cn2ncnc2c1C (stereo not drawn) [Example 644]
30 | 2.6 nM | 6.5 nM | 1920 nM | COc1cc(-c2[nH]c3ccc(C4CC(N(C)C)C4)nc3c2C(C)C)cn2ncnc12 (stereo not drawn) [Example 629]
31 | 2.4 nM | 7.9 nM | 1960 nM | Cc1c(-c2[nH]c3ccc(C4CC(N(C)C(=O)CN(C)C)C4)nc3c2C(C)C)cn2ncnc2c1C (stereo not drawn) [Example 615]
32 | 2.3 nM | 26 nM | 5890 nM | COc1cc(-c2[nH]c3ccc(C4CN(CCS(C)(=O)=O)C4)nc3c2C(C)C)cn2ncnc12 [Example 647]
33 | 2.1 nM | 3.3 nM | 343 nM | CNC(=O)CNC1CC(c2ccc3[nH]c(-c4cc(OC)c5ncnn5c4)c(C(C)C)c3n2)C1 (stereo not drawn) [Example 628]
34 | 2.1 nM | 11 nM | 4140 nM | Cc1c(-c2[nH]c3ccc(C4CN(CC(N)=O)C4)nc3c2C(C)C)cn2ncnc2c1C [Example 646]
35 | 2.1 nM | 40 nM | 2070 nM | COc1cc(-c2[nH]c3ccc(C4CNC4)nc3c2C(C)C)cn2ncnc12 [Example 648]
36 | 2.1 nM | 10 nM | 842 nM | COc1cc(-c2[nH]c3ccc(C4CN(CC(C)(C)O)C4)nc3c2C(C)C)cn2ncnc12 [Example 657]
37 | 2 nM | 3.2 nM | 1240 nM | COc1cc(-c2[nH]c3ccc(OC4CCN(CC(C)(C)O)CC4)nc3c2C(C)C)cn2ncnc12 [Example 613, 1-(4-((3-isopropyl-2-(8-methoxy-[1,2,4]triazolo[1,5-a]pyridin-6-yl)-1H-pyrrolo[3,2-b]pyridin-5-yl)oxy)piperidin-1-yl)-2-methylpropan-2-ol]
38 | 2 nM | 3 nM | 2370 nM | COc1cc(-c2[nH]c3ccc(C4CC(NCCS(C)(=O)=O)C4)nc3c2C(C)C)cn2ncnc12 (stereo not drawn) [Example 634]
39 | 1.9 nM | 14 nM | 1280 nM | COc1cc(-c2[nH]c3ccc(C4CC(N(C)C(=O)CN(C)C)C4)nc3c2C(C)C)cn2ncnc12 (stereo not drawn) [Example 630]
40 | 1.7 nM | 24 nM | 687 nM | COc1cc(-c2[nH]c3ccc(C4CN(Cc5c[nH]nn5)C4)nc3c2C(C)C)cn2ncnc12 [Example 651]
41 | 1.6 nM | 2 nM | 3130 nM | Cc1c(-c2[nH]c3ccc(C4CC(N(C)C)C4)nc3c2C(C)C)cn2ncnc2c1C (stereo not drawn) [Example 623]
42 | 1.4 nM | 11 nM | 2070 nM | COc1cc(-c2[nH]c3ccc(C4CN(C(C)C)C4)nc3c2C(C)C)cn2ncnc12 [Example 655]
43 | 1.4 nM | 4.7 nM | 1850 nM | Cc1c(-c2[nH]c3ccc(C4CN(C(C)C)C4)nc3c2C(C)C)cn2ncnc2c1C [Example 656]
44 | 0.98 nM | 1.9 nM | 1470 nM | COc1cc(-c2[nH]c3ccc(C4CC(N(C)C)C4)nc3c2C(C)C)cn2ncnc12 (stereo not drawn) [Example 639]
45 | 0.73 nM | 2.4 nM | 223 nM | COc1cc(-c2[nH]c3ccc(C4CC(N)C4)nc3c2C(C)C)cn2ncnc12 (stereo not drawn) [Example 620]
46 | 0.72 nM | 10 nM | 978 nM | COc1cc(-c2[nH]c3ccc(C4CC(N(C)C(=O)CN(C)C)C4)nc3c2C(C)C)cn2ncnc12 (stereo not drawn) [Example 625]
47 | 0.43 nM | 3 nM | 865 nM | COc1cc(-c2[nH]c3ccc(C4CC(NC(=O)CN(C)C)C4)nc3c2C(C)C)cn2ncnc12 (stereo not drawn) [Example 619]
